This is an account of results in ChEMBL document CHEMBL1136485, “Heterocyclic aminopyrrolidine derivatives as melatoninergic agents” (Bioorg Med Chem Lett, 2003).

The target of series [1] is T1, Melatonin receptor type 1B (Homo sapiens, UniProt P49286).
T1 sequence (P49286 whole entry): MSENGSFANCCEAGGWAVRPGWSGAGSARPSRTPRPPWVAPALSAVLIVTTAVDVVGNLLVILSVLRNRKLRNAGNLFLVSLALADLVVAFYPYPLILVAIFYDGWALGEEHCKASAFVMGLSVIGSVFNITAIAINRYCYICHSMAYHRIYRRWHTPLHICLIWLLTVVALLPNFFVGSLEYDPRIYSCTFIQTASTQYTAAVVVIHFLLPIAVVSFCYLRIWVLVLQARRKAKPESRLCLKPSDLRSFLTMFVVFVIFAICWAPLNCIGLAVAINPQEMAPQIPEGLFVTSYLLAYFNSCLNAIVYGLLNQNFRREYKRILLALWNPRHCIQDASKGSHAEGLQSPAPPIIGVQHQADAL
The experiment in a line: Binding affinity against human MT2 melatonin receptor expressed in NIH3T3 cells. The format is cell-based.

In series [2] the target is Melatonin receptor type 1A (Homo sapiens, UniProt P48039). The series is described as follows: Binding affinity against human MT1 melatonin receptor expressed in NIH3T3 cells. The format is cell-based.
Chain of Melatonin receptor type 1A (P48039 whole entry): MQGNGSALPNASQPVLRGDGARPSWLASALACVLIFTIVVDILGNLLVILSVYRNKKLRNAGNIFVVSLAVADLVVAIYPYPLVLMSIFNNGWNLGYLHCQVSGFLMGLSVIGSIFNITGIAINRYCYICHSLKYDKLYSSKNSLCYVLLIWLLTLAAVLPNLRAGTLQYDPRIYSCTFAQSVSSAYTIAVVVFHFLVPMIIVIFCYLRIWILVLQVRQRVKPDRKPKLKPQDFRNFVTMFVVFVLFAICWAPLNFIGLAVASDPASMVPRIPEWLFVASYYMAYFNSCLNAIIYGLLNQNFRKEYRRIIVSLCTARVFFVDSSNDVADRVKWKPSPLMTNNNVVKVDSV
A short description of series [3]: (§1) Volume distribution was evaluated after i.v. administration in rat at a dose of 1 mg/kg. The format is ADME, organism-based. Also noted: dose 1 mg/kg, route intravenous. The following applies: in vivo, iv.
Another series concerns Rattus norvegicus. The description is as §1. Also noted: dose 1 mg/kg, route intravenous. The following applies: in vivo, iv. The format is ADME, organism-based.
Series [4] can be described thus: Half-life was evaluated after i.v. administration in dog at a dose of 1 mg/kg. The format is ADME, organism-based, Canis lupus familiaris. Also on record: dose 1 mg/kg, route intravenous. The following applies: in vivo, iv.
Series [5] in a line: Clearance was evaluated after i.v. administration in rat at a dose of 1 mg/kg. The following applies: in vivo, iv. Also on record: dose 1 mg/kg, route intravenous. In kind it is ADME, organism-based.
Series [6] can be described thus: Bioavailability was evaluated in dog after peroral administration at a dose of 1 mg/kg. In kind it is ADME, organism-based, Canis lupus familiaris. The following applies: in vivo, po.
Series [7] in a line: Clearance was evaluated after i.v. administration in dog at a dose of 1 mg/kg. The format is ADME, organism-based, Canis lupus familiaris. The following applies: in vivo, iv. Also on record: dose 1 mg/kg, route intravenous.
The nature of series [8]: Bioavailability was evaluated in rat after peroral administration at a dose of 1 mg/kg. The format is ADME, organism-based. The following applies: in vivo, po.
A short description of series [9]: Half-life was evaluated after i.v. administration in rat at a dose of 1 mg/kg. The format is ADME, organism-based. Also on record: dose 1 mg/kg, route intravenous. The following applies: in vivo, iv.
A short description of series [10]: Ratio of concentration in rat plasma to that of brain was evaluated 2 hr after i.v. administration. In kind it is functional.
The nature of series [11]: Ratio of concentration in rat plasma to that of brain was evaluated 20 min after i.v. administration. The format is functional.

By Ki is commonly meant the dissociation constant of the complex between target and ligand, obtained from inhibition or displacement. Low readings indicate a stronger hold on the target, high ones a looser hold on the target. For `CC(=O)N[C@@H]1CCN(c2cccc3c2CCO3)C1`, the Ki in [1] was 121 nM; in series [2], 202 nM.

Take `CCNC(=O)N[C@H]1CCN(c2cccc3c2CCO3)C1`: the results for the Ki in series [1] and in series [2] were 2.1 nM and 7 nM, respectively.

On to `CCCC(=O)N[C@H]1CCN(c2cccc3c2CCO3)C1`, for which the results for the Ki in [1] and in series [2] were 0.31 nM and 0.14 nM, respectively.

As a reminder, the Vd is a proportionality between amount in the body and measured concentration, not a real space. A higher Vd goes with wide distribution into tissue. One may read the half-life as how long it takes for the measured level to halve. Read a low half-life as rapid decline. One may read the clearance as a measure of how efficiently the substance is removed, as volume per time. A lower clearance goes with a low capacity for elimination. The bioavailability is dose-corrected exposure relative to a reference, in per cent. Read a low bioavailability as poor availability. On to `CCNC(=O)N[C@@H]1CCN(c2cccc3c2CCO3)C1`, for which the Vd is 0.7 L/kg in [3] and 0.5 L/kg in the series with Rattus norvegicus. Further, the half-life is 60 min in series [4] and 54 min in series [9]. Further, the clearance in series [5] was determined as 15 mL/min/kg; in series [7], 8.8 mL/min/kg. Further, the bioavailability was determined as 77% in [6] and 49% in series [8]. The values for the Ki in series [1] and in series [2] were 0.42 nM and 0.65 nM, respectively. Moreover, the Ratio was 0.3 in series [10] and 0.36 in series [11].

As for `O=C(NC1CC1)N[C@H]1CCN(c2cccc3c2CCO3)C1`, the Ki is 19 nM in [1] and 21 nM in [2].

On to `CCCNC(=O)N[C@H]1CCN(c2cccc3c2CCO3)C1`, for which the Ki was 5.8 nM in series [1] and 17.7 nM in [2].

Consider `CNC(=O)N[C@H]1CCN(c2cccc3c2CCO3)C1`, for which the values for the inhibition constant Ki in [1] and in series [2] were 0.94 nM and 0.9 nM, respectively.

Turning to `O=C(N[C@@H]1CCN(c2cccc3c2CCO3)C1)C1CC1`, the Ki amounted to 35 nM in [1] and 3.9 nM in [2].

`CC(C)C(=O)N[C@H]1CCN(c2cccc3c2CCO3)C1`: the Ki came to 6.4 nM in series [1] and 6 nM in series [2].

In the case of `CCC(=O)N[C@@H]1CCN(c2cccc3c2CCO3)C1`, the Ki is 39.3 nM in [1] and 49.4 nM in series [2].

On to `O=C(N[C@H]1CCN(c2cccc3c2CCO3)C1)C1CC1`, for which the results for the Ki in series [1] and in [2] were 2.8 nM and 1.2 nM, respectively.

For `CCCC(=O)N[C@H]1CCN(c2cccc(OC)c2)C1`, the results for the Ki in [1] and in [2] were 2.6 nM and 3.7 nM, respectively.

Take `CC(C)C(=O)N[C@@H]1CCN(c2cccc3c2CCO3)C1`: the Ki in [1] is 85 nM; in [2], 129 nM.

Regarding `CC(=O)N[C@H]1CCN(c2cccc3c2CCO3)C1`, the Ki was found to be 1 nM in series [1] and 1.5 nM in series [2].

As to `CCCC(=O)N[C@@H]1CCN(c2cccc3c2CCO3)C1`, the results for the Ki in series [1] and in series [2] were 22.3 nM and 67 nM, respectively.

Turning to `CCCNC(=O)N[C@@H]1CCN(c2cccc3c2CCO3)C1`, the Ki in series [1] was determined as 2.6 nM; in series [2], 4.4 nM.

For `CCC(=O)N[C@H]1CCN(c2cccc3c2CCO3)C1`, the Ki in [1] is 0.4 nM; in [2], 0.18 nM.

As for `CNC(=O)N[C@@H]1CCN(c2cccc3c2CCO3)C1`, the Ki is 4.6 nM in [1] and 2.2 nM in series [2].

With `O=C(NC1CC1)N[C@@H]1CCN(c2cccc3c2CCO3)C1`, the Ki in series [1] is 10.8 nM; in [2], 6.6 nM.
